Entries after “also recorded” stand apart in the source; their conditions may differ. Values belong to the compound of their own block, whether it stands above or below them.
How the values were obtained:
[1] = target: Recombinant full-length Sirt1 (human) (UniProt Q96EB6); test: cross-linking
recombinant Sirt1 = test: inhibition/competition of p53 ABP labeling of recombinant Sirt1; type: binding, human
[2] = tested on: Sirt1 (overexpressed) in HEK293T lysates; test: p53 ABP labeling of Sirt1 in HEK293T lysates overexpressing Sirt1; type: binding; conditions: 500 μM inhibitor; 5 μM p53 ABP, 50 μg lysate, 500 μM NAD^+
Sirt2 = conditions: cited from earlier work
Sirt1 = conditions: ref [17]; cited from earlier work

UniProt Q96EB6, sequence (Q96EB6 whole entry): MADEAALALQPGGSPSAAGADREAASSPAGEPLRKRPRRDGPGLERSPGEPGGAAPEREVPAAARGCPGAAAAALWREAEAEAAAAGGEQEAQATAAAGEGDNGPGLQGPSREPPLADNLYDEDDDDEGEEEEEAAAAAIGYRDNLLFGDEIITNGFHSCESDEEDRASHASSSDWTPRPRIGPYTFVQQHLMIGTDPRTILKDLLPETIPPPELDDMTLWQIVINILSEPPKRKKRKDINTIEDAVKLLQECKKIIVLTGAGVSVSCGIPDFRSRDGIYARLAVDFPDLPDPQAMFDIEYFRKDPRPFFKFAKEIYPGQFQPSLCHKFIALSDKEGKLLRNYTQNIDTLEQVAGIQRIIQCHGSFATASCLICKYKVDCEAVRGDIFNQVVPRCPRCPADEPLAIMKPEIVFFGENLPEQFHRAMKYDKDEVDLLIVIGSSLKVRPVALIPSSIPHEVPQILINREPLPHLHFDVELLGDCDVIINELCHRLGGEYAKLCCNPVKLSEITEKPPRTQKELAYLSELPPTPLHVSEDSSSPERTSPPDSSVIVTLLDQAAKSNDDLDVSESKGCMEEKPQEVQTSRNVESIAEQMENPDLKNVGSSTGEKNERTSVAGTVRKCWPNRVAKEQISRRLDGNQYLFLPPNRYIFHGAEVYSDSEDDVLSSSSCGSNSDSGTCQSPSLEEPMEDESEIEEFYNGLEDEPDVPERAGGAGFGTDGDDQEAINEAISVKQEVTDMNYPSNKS

- fold increase of labelling with NAD+ over without NAD+ [1]: 4 fold
Compound: 8-mer thioacetyl-lysine p53 peptide, (diazirine)-RHKK(thioacetyl)LMF-(propargylglycine)-NH2

- concentration needed to compete with p53 ABP labeling versus Kd (recombinant Sirt1; 0.2–500 μM, competitor reversible, p53 ABP labeling covalent and irreversible): exceeds the Kd values
Compound: H2N-RHKK(trifluoroacetyl)LMF-NH2 [p53tfa]

Compound: CCCCCCCCCCCCCC(=S)NCCCCC(NC(=O)OCc1ccccc1)C(=O)Nc1ccccc1 (centres unmarked) [TM]
- change of p53 ABP labeling of Sirt1 [2]: no reduction in activity-based labeling of Sirt1
- Sirt2 selectivity of TM (Sirt2; ref [22]): Sirt2-selective

Compound: N[C@@H](CCC(=O)N[C@@H](CSN=O)C(=O)NCC(=O)O)C(=O)O [GSNO, S-nitrosoglutathione]
- Sirt1 deacetylase activity upon S-nitrosation (Sirt1): complete loss of deacetylase activity
- effect on p53 ABP labeling of recombinant Sirt1, GSNO pretreatment (recombinant Sirt1; 100 μM GSNO, presence and absence of 500 μM NAD^+): A dramatic loss of Sirt1 labeling

Compound: Cc1cc(C)nc(SCC(=O)Nc2ncc(Cc3cccc4ccccc34)s2)n1 [SirReal2]
- change of p53 ABP labeling of Sirt1 [2]: no reduction in activity-based labeling of Sirt1; also recorded: a slight increase in activity-based labeling of Sirt1
- Sirt2 selectivity of SirReal2 (Sirt2; ref [48]): Sirt2-selective

— paper PMC7686039 (Bioorganic chemistry, 2020)
